Patent US8686048B2, “Immunomodulator and anti-inflammatory compounds” (Rhizen Pharmaceuticals SA, priority 2010, dated 2014)

Key:
IL-17 = assay: Inhibition of IL-17 release from mouse splenocytes (PMA + ionomycin, ELISA); assay type: cell-based, Balb/c mice; details: Splenocyte, 10 μM, 3 h
Protocol: 2. Inhibition of IL-17 Release from Mouse Splenocytes:
Splenocytes isolated from Balb/c mice were re-suspended in RPMI medium at a concentration of 1×10^6 cells/ml and seeded in a 6 well plate. Cells were incubated with desired concentrations of the inhibitor for 15 min prior to induction with 10 ng/ml PMA+1 μM ionomycin. After a 3 h incubation, supernatant was collected and analyzed for IL-17 concentration using an ELISA kit. Data were analyzed using GraphPad Prism. IC50 values for each compound were determined based on the percent inhibition due to the test compound compared to the control.

h-DHODH = molecular target: T1, h-DHODH (Homo sapiens, UniProt Q02127); assay: Dihydro-orotate dehydrogenase inhibition assay (U937 membrane preparations, DCIP reduction); assay type: biochemical; details: U937 membrane preparation; for inhibition at 0.3 µM: compound tested at 0.3 uM (footnote *)
T1 construct: endogenous in cells; host or cells: U937 cells (membrane fraction, solubilised with 1% octyl glucoside)
T1 sequence (Q02127 whole entry): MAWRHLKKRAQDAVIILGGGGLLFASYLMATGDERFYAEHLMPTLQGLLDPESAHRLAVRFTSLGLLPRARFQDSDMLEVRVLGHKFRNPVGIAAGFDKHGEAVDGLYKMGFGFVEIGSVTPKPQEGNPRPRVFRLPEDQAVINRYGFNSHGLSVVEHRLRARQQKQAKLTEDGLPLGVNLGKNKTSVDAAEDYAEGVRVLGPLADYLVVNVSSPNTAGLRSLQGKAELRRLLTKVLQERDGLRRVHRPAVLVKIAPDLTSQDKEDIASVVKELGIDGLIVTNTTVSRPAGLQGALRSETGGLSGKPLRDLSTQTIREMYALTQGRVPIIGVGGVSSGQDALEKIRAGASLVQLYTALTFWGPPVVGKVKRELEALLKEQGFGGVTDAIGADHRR
Protocol: Dihydro-Orotate Dehydrogenase Inhibition Assay
Dihydro-orotate dehydrogenase (DHODH) catalyzes the […] of dihydro-orotate to orotate during de novo biosynthesis of pyrimidines Inhibition of DHODH activity in U937 membrane preparations was measured by the dihydro-orotate driven reduction of 2,6 dichloroindophenol (DCIP).
U937 cells were homogenized in 20 mM Tris/HCl (pH 7.2) containing 1 mM EDTA. […] Following washes, the pellet was dissolved in 20 mM Tris/HCl containing 150 mM NaCl, 1 mM EDTA, and 1% octyl glucoside on ice for 1 h. Particulate matter was removed by centrifugation at 100000×g for 1 h at 4° C. […] The mixture was incubated at 37° C. for 4 h before measuring the change in absorbance on a plate reader (BMG Labtech., Germany) at 600 nm. Data were analyzed using GraphPad Prism. IC50 for each compound was determined based on the percent inhibition of dihydro-orotate […].

| inhibition at 1 µM (h-DHODH) [%] | melting point [°C] | IC50 (h-DHODH) [nM] | inhibition at 0.3 µM (h-DHODH) [%] | Structure (SMILES) | inhibition at 10 µM (IL-17) [%] |
| --- | --- | --- | --- | --- | --- |
| 55.4 | 163 to 167 | – | – | O=C(O)c1ccccc1C(=O)Nc1c(F)cc(-c2ccccc2F)cc1Cl [Example 20, 2-(3-Chloro-2′,5-difluorobiphenyl-4-ylcarbamoyl)benzoic acid] | 24.3 |
| 56.4 | 135.9 to 138.2 | – | – | CCOc1cccc(-c2cc(Cl)c(NC(=O)c3ccccc3C(=O)O)c(Cl)c2)c1 [Example 21, 2-(3,5-Dichloro-3′-ethoxybiphenyl-4-ylcarbamoyl)benzoic acid] | 17.8 |
| 41.8 | 128.3 to 132.1 | – | – | O=C(O)c1ccccc1C(=O)Nc1ccc(-c2cccc(OC(F)(F)F)c2)cc1F [Example 22, 2-[3-Fluoro-3′-(trifluoromethoxy)biphenyl-4-ylcarbamoyl]benzoic acid] | 12.9 |
| 47.2 | 142.2 to 148.1 | – | – | O=C(O)c1ccccc1C(=O)Nc1ccc(-c2ccccc2F)cc1OC(F)(F)F [Example 23, 2-[2′-Fluoro-3-(trifluoromethoxy)biphenyl-4-ylcarbamoyl]benzoic acid] | 15 |
| 40.2 | 185.4 to 193.6 | – | – | O=C(O)c1ccccc1C(=O)Nc1c(Cl)cc(-c2ccccc2F)cc1Cl [Example 24, 2-(3,5-Dichloro-2′-fluorobiphenyl-4-ylcarbamoyl)benzoic acid] | 8.46 |
| 60.2 | 122 to 125 | – | – | CC(C)Oc1cccc(-c2cc(F)c(NC(=O)c3ccccc3C(=O)O)c(F)c2)c1 [Example 25, 2-(3,5-Difluoro-3′-isopropoxybiphenyl-4-ylcarbamoyl)benzoic acid] | 17.5 |
| 85.3 | 128.6 to 132.1 | 122 | – | CCCOc1cccc(-c2cc(F)c(NC(=O)c3ccccc3C(=O)O)c(F)c2)c1 [Example 26, 2-(3,5-Difluoro-3′-propoxybiphenyl-4-ylcarbamoyl)benzoic acid] | 8.7 |
| 82.9 | 202.3 to 206.5 | 147 | – | O=C(O)c1cc(Cl)c(Cl)cc1C(=O)Nc1c(F)cc(-c2ccccc2Cl)cc1Cl [Example 27, 4,5-Dichloro-2-(2′,3-dichloro-5-fluorobiphenyl-4-ylcarbamoyl)benzoic acid] | 12.4 |
| 68 | 202 to 205.5 | – | – | O=C(O)c1cc(Cl)c(Cl)cc1C(=O)Nc1c(F)cc(-c2ccccc2Cl)cc1F [Example 30, 4,5-Dichloro-2-(2′-chloro-3,5-difluorobiphenyl-4-ylcarbamoyl)benzoic acid] | 10.3 |
| 58.9 | 152.2 to 156.3 | – | – | O=C(O)c1ccccc1C(=O)Nc1c(F)cc(-c2ccccc2F)cc1F [Example 32, 2-(2′,3,5-Trifluorobiphenyl-4-ylcarbamoyl)benzoic acid] | 11.8 |
| 74.4 | 153 to 156.5 | 178 | – | O=C(O)c1ccccc1C(=O)Nc1c(F)cc(-c2cccc(OC(F)(F)F)c2)cc1Cl [Example 39, 2-[3-Chloro-5-fluoro-3′-(trifluoromethoxy)biphenyl-4-ylcarbamoyl]benzoic acid] | 5.87 |
| 72.2 | 153 to 156.5 | 83.4 | – | O=C(O)c1ccccc1C(=O)Nc1c(F)cc(-c2cccc(OC3CCCC3)c2)cc1F [Example 41, 2-[3′-(Cyclopentyloxy)-3,5-difluorobiphenyl-4-ylcarbamoyl]benzoic acid] | 7.16 |
| 84.8 | 137.8 to 142.1 | 53.5 | – | CCSc1cccc(-c2cc(F)c(NC(=O)c3ccccc3C(=O)O)c(F)c2)c1 [Example 71, 2-[3′-(ethylthio)-3,5-difluorobiphenyl-4-ylcarbamoyl]benzoic acid] | 27.8 |
| – | 125 to 127 | 28 | 85 | O=C(O)c1ccccc1C(=O)Nc1c(F)cc(-c2cccc(OC3CC3)c2)cc1F [Example 73, 2-(3′-cyclopropoxy-3,5-difluorobiphenyl-4-ylcarbamoyl)benzoic acid] | 7.86 |
| – | 138 to 140 | – | 7.14 | CCOc1cccc(-c2cc(F)c(NC(=O)c3cccc(C)c3C(=O)O)c(F)c2)c1 [Example 74, 2-(3′-ethoxy-3,5-difluorobiphenyl-4-ylcarbamoyl)-6(5)-methylbenzoic acid] | 13.8 |
| – | 207 to 210 | – | 44 | CCOc1cccc(-c2cc(F)c(NC(=O)c3ncccc3C(=O)O)c(F)c2)c1 [Example 76, 2-(3′-ethoxy-3,5-difluorobiphenyl-4-ylcarbamoyl)nicotinic acid] | 7.88 |
| – | 219 to 221 | – | 50.2 | CCOc1cccc(-c2cc(F)c(NC(=O)c3ccncc3C(=O)O)c(F)c2)c1 [Example 77, 4-(3′-ethoxy-3,5-difluorobiphenyl-4-ylcarbamoyl)nicotinic acid] | 9.25 |
| – | 158 to 160 | – | 32.9 | CCSc1cccc(-c2c(F)c(F)c(NC(=O)c3ccccc3C(=O)O)c(F)c2F)c1 [Example 78, 2-[3′-(ethylthio)-2,3,5,6-tetrafluorobiphenyl-4-ylcarbamoyl]benzoic acid] | 11.1 |
| – | 116 to 119 | – | 47.6 | CCCOc1cccc(-c2ccc(NC(=O)c3ccccc3C(=O)O)c(F)c2)c1 [Example 80, 2-(3-fluoro-3′-propoxybiphenyl-4-ylcarbamoyl)benzoic acid] | 20.1 |
| – | 152 to 154 | – | 11.2 | CCCOc1cccc(-c2ccc(NC(=O)c3ccccc3C(=O)O)cc2)c1 [Example 81, 2-(3′-propoxybiphenyl-4-ylcarbamoyl)benzoic acid] | 23 |
| – | 74 to 76 | – | 57.9 | CCSc1cccc(-c2ccc(NC(=O)c3ccccc3C(=O)O)cc2F)c1 [Example 82, 2-[3′-(ethylthio)-2-fluorobiphenyl-4-ylcarbamoyl]benzoic acid] | 17.6 |
| – | 243 to 247 | – | 33.6 | O=C(O)c1ccccc1C(=O)Nc1ccc(-c2ccccc2Cl)cc1 [Example 86, 2-(2′-chlorobiphenyl-4-ylcarbamoyl)benzoic acid] | 23.8 |
| – | 243 to 247 | – | 30.2 | COc1cccc(-c2ccc(NC(=O)c3ccccc3C(=O)O)cc2)c1 [Example 87, 2-(3′-methoxybiphenyl-4-ylcarbamoyl)benzoic acid] | 20.9 |

| Structure (SMILES) | inhibition at 1 µM (h-DHODH) [%] | melting point [°C] | IC50 (h-DHODH) [nM] | inhibition at 0.3 µM (h-DHODH) [%] | inhibition at 10 µM (IL-17) [%] |
| --- | --- | --- | --- | --- | --- |
| CC(C)COc1cccc(-c2cc(F)c(NC(=O)c3ccccc3C(=O)O)c(F)c2)c1 [Example 34, 2-(3,5-Difluoro-3′-isobutoxybiphenyl-4-ylcarbamoyl)benzoic acid] | 95.8 | 112.6 to 116.4 | 62.5 | – | 5.96 |
